Measurements from patent EP1801117A1, “Means and methods for regulating amino acid pools and/or transport” (Friesland Brands B.V., priority 2005, dated 2007).

Biological target: L. lactis MG1363 BcaP (CtrA), branched-chain amino acid permease (Lactococcus lactis subsp. cremoris, UniProt A2RHI9)
Test: Competition experiment: inhibition of L-[14C]isoleucine uptake by unlabeled L-amino acids in whole cells overproducing BcaP
Assay type: cell-based
Settings: 10-fold excess of unlabeled L-amino acid; 250 µM unlabeled L-isoleucine (control); lactococcal cells overproducing BcaP; uptake after 1 min at 30°C; means of three measurements
Description: Amino acid transport assays. L. lactis MG1363 (pNGbcaP; pNZ9530), L. lactis MG1363 or L. lactis MGbcaP, the latter two harboring plasmids pNG8048 and pNZ9530, were grown at 30°C in 50 ml of ½GM17. At an OD600 of approximately 0.4, 1000^-1 volume of supernatant of the nisin-producing strain L. lactis NZ9700 (Kuipers et al, 1993) was added to the cultures to induce BcaP production. At an OD600 of approximately 1.0, cells were harvested by centrifugation at 6300 g and 4°C. Cell pellets were washed with 25 ml of ice-cold CDM, concentrated to an OD600 of 10.0 in CDM lacking amino acids and stored on ice until use. Cells were energized prior to transport assays by 5 min of incubation at 30°C in the presence of 0.5% glucose. Subsequently, 100 µl of cell suspension were mixed with 100 µL of CDM containing 40 µM of the unlabeled amino acid of interest and a final concentration of 1 µM of the same amino acid in a ^14C- or ^35S-labeled form (Amersham Biosciences). For competition experiments, a 10-fold excess of unlabeled amino acid was added. Mixtures were incubated at 30°C for various time intervals while stirring. The reactions were stopped by the addition of 2 ml of ice-cold 0.1 M LiCl, followed by filtration through 0.45 µm pore-size nitrocellulose filters (Schleicher & Schuell, GmbH, Dassel, Germany). Reaction tubes and filters were washed with another 2 mL of ice-cold 0.1 M LiCl. Subsequently, the filters were transferred to vials containing 2 ml of scintillation fluid (Packard BioScience, Groningen, the Netherlands) and radioactivity was determined using a Packard TriCarb 2000 CA liquid scintillation analyzer (Packard Instruments, Meriden, CT).

Sequence of L. lactis MG1363 BcaP (CtrA), branched-chain amino acid permease (A2RHI9 whole entry): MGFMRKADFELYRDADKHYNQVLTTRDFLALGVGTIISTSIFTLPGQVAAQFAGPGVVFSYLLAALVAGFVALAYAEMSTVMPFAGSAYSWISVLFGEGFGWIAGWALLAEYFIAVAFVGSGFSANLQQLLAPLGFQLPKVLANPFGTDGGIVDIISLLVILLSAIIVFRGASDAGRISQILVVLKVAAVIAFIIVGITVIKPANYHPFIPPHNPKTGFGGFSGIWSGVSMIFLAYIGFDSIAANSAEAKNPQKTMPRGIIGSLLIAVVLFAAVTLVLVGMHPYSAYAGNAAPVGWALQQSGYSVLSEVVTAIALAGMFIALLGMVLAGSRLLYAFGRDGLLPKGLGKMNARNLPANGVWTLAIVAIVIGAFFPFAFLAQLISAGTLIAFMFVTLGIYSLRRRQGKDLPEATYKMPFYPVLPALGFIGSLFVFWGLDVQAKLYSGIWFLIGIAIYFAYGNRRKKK

Row | Structure (SMILES) | inhibition of isoleucine transport by BcaP (reduction of L-[14C]isoleucine uptake)
1 | CC(C)[C@H](N)C(=O)O [valine] | 64%
2 | CC[C@H](C)[C@H](N)C(=O)O [isoleucine] | about 80%
3 | CC(C)C[C@H](N)C(=O)O [leucine] | about 80%
4 | CSCC[C@H](N)C(=O)O [methionine] | 23%
